Results from US20110071100A1, “SULFOBETAINES FOR CANCER, OBESITY, MACULAR DEGENERATION, NEURODEGENERATIVE DISEASES” (TILTAN PHARMA LTD., priority 2008, published 2011).

System: malignant (mammary carcinoma) tumor (EMT6/CTX)
Experiment: Tumor growth of malignant (mammary carcinoma) tumor (EMT6/CTX) in a mouse experimental model
Type: in vivo, CB6F1 male mice
Details: for effect on tumor growth, agent alone: i.p.; for inhibition of tumor growth, alone and in combination with Hamsa treatment (summary of experiments 1-4): SB-18 and CHAPS 40 mg/kg, SB-12 2.5 and 40 mg/kg
Protocol: In order to determine the effect of SB-18, CHAPS, SB-12, SB-16-4 and SB-18-4 each alone and each in combination with 4 other agents (“Hamsa treatment”), on tumor growth of a malignant (mammary carcinoma) tumor (EMT6/CTX) in a mouse experimental model, six (6) experiments were carried out as described below:
CB6F1 male mice (a cross between Balbc and C57bl) at age of 7-8 weeks were anesthetized with Ketamine:Xelazine in a 0.85:0.15 ratio respectively, and diluted 1:1 with double distilled water (DDW) and injected i.m. in volume of 50 uL.
100 uL of EMT6/CTX cells 3.6×10^5 cells/mouse were injected subcutaneously (s.c.) to the anesthetized mice, after shaving their back (to enable accurate measurement of tumor-volume). The mice were divided into four groups, as outlined below, 6-8 animals in each group. The mice were marked with Picric acid on head (H), tail (T), head and tail (H&T), right leg (RL), left leg (LL), right and left legs (SY), back and blank and were individually monitored.
“Hamsa treatment” as used herein consists of the following active ingredients in the following concentrations: • Cimetidine 60 mg/kg (Farchemia s.r.l. Italy). • Diclofenac 30 mg/kg (Unique Pharma India). • Cyclophosphamide (CTX) 60 mg/kg (Hisun China) • Sulfasalazine (SSZ) (Farchemia s.r.l. Italy)—50 mg/kg on days of cytotoxic treatment, i.e. on days when cyclophosphamide and diclofenac are administered; 150 mg/kg on days of non-cytotoxic treatment, i.e. on days when no cyclophosphamide and disclofenac are administered.
The preparation and administration protocol of the Hamsa treatment is outlined in Table 1:
SB-12, CHAPS and SB-18 (HOPAX Chem. Mfg. Ltd Taiwan) were prepared separately as aqueous solutions, then mixed 1:1 with Vehicle or the cytotoxic or non-cytotoxic stage of the Hamsa treatment and twice the volume was injected i.p. Due to its lower solubility, SB-18 was dissolved by mild warming (˜45° C.) of its aqueous solution in the presence of 2% Solutol HS-15 (BASF-Germany). In groups that received SB-12, CHAPS or SB-18, this agent was injected daily. […]
SB-16-4 was first dissolved in DDW containing 2% Solutol HS-15 with heating to 40° C. to 8 mg/mL concentration. The stock solution was diluted with non-cytotoxic and cytotoxic treatments in 1:1 ratio.
SB-18-4 was first dissolved in DDW containing 4% Solutol HS-15 with heating to 40° C. to 8 mg/mL concentration. The stock solution was diluted with non-cytotoxic and cytotoxic treatments in 1:1 ratio
• 1. 7 mice received vehicle (DDW+2% Solutol—BASF, Germany) • 2. 8 mice received Hamsa treatment • 3. 8 mice received Hamsa treatment in combination with SB-18 (40 mg/kg). • 4. 6 mice received SB-18 in vehicle (40 mg/kg)
• 1. 7 mice received vehicle (DDW+2% Solutol—BASF, Germany) • 2. 8 mice received Hamsa treatment • 3. 7 mice received Hamsa treatment in combination with CHAPS (40 mg/kg). • 4. 7 mice received CHAPS in vehicle (40 mg/kg)
• 1. 7 mice received vehicle (DDW+2% Solutol—BASF, Germany) • 2. 6 mice received Hamsa treatment. • 3. 7 mice received Hamsa treatment with SB-12 (2.5 mg/kg). • 4. 7 mice received SB-12 in vehicle (2.5 mg/kg)
• 1. 7 mice received vehicle (DDW+2% Solutol—BASF, Germany) • 2. 7 mice received Hamsa treatment • 3. 7 mice received Hamsa treatment with SB-12 (40 mg/kg).
• 1. 6 mice received vehicle (DDW+2% Solutol—BASF, Germany) • 2. 6 mice received Hamsa treatment • 3. 7 mice received Hamsa treatment in combination with SB-16-4 (40 mg/kg). • 4. 5 mice received SB-16-4 in vehicle (40 mg/kg)
• 1. 7 mice received vehicle (DDW+2% Solutol—BASF, Germany) • 2. 8 mice received Hamsa treatment • 3. 7 mice received Hamsa treatment in combination with SB-18-4 (40 mg/kg). • 4. 7 mice received SB-18-4 in vehicle (40 mg/kg)
Five (5) or six (6) days after inoculation, when the tumor is already palpable, the treatment was initiated by intraperitoneally (i.p.) injection of the indicated treatment, in a volume of 250 uL, once a day, every day, 6 days a week. […]

[1] = 40 mg/kg i.p. daily + Hamsa treatment (cimetidine, sulfasalazine, diclofenac, cyclophosphamide)
[2] = 40 mg/kg in vehicle, daily, s.c. EMT6/CTX tumor, tumor volume by caliper

Compound | effect on tumor growth in combination with Hamsa treatment [1] | effect on tumor growth, agent alone [2] | inhibition of tumor growth, alone and in combination with Hamsa treatment (summary of experiments 1-4) | effect on tumor growth in combination with Hamsa treatment (2.5 mg/kg i.p. daily + Hamsa treatment (low dose)) | effect on tumor growth, agent alone (2.5 mg/kg in vehicle, daily (low dose))
CC(CCC(=O)NCCC[N+](C)(C)CCCS(=O)(=O)[O-])C1CCC2C3C(O)CC4CC(O)CCC4(C)C3CC(O)C12C (centres unmarked) [CHAPS, 3-[3-(Cholamidopropyl)dimethylamonio]-1-propanesulfonate] | has a synergistic effect | has an anti-tumor effect | inhibited tumor growth | – | –
CCCCCCCCCCCC[N+](C)(C)CCCS(=O)(=O)[O-] [SB-12, N-Dodecyl-N,N-Dimethyl-3-Ammonio-1-Propane Sulfonate, reference compound] | compromises the anti-tumor effect of Hamsa treatment | – | did not | slightly compromises the anti-tumor effect of the Hamsa treatment | does not inhibit tumor growth, but rather enhances tumor-growth
CCCCCCCCCCCCCCCC[N+](C)(C)CCCCS(=O)(=O)[O-] [SB-16-4, N,N-Dimethylhexadecyl-ammonium-1-(4-butylsulfonate)] | has a synergistic effect | has an anti-tumor effect | – | – | –
CCCCCCCCCCCCCCCCCC[N+](C)(C)CCCS(=O)(=O)[O-] [SB-18, N-Octadecyl-N,N-Dimethyl-3-Ammonio-1-Propane Sulfonate] | has a synergistic effect | has an anti-tumor effect | inhibited tumor growth | – | –
CCCCCCCCCCCCCCCCCC[N+](C)(C)CCCCS(=O)(=O)[O-] [SB-18-4, N,N-Dimethyloctadecyl-ammonium-1-(4-butylsulfonate)] | has a synergistic effect | has an anti-tumor effect | – | – | –
